ChEMBL document CHEMBL1201862, “PubChem BioAssay data set” (2004)
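Values below derive from 48-hour exposures of cells grown in 96-well plates, with endpoints linearly interpolated between the two concentrations bracketing the appropriate inhibition level. GI50 marks 50% less growth.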 The source made the active and inactive calls. Rule as the data show it: active = GI50 up to about 1.1 µM and inactive = higher.

Tests used:
Test in all cases: NCI-60 cell line screen, 48 h
UACC-62 = test system: UACC-62
NCI-H460 = test system: NCI-H460
SK-MEL-2 = test system: SK-MEL-2
KM12 = test system: KM12
OVCAR-4 = test system: OVCAR-4
SNB-75 = test system: SNB-75
UACC-257 = test system: UACC-257
HCT-116 = test system: HCT-116
NCI/ADR-RES = test system: NCI/ADR-RES
U-251 = test system: U-251
RPMI-8226 = test system: RPMI-8226
EKVX = test system: EKVX
HCC 2998 = test system: HCC 2998
A498 = test system: A498
SK-OV-3 = test system: SK-OV-3
NCI-H23 = test system: NCI-H23
CCRF-CEM = test system: CCRF-CEM
HL-60 = test system: HL-60
MDA-MB-435 = test system: MDA-MB-435

Row | Compound | GI50 (UACC-62) | GI50 (NCI-H460) | GI50 (SK-MEL-2) | GI50 (KM12) | GI50 (OVCAR-4) | GI50 (SNB-75) | GI50 (UACC-257) | GI50 (HCT-116) | GI50 (NCI/ADR-RES) | GI50 (U-251) | GI50 (RPMI-8226) | GI50 (EKVX) | GI50 (HCC 2998) | GI50 (A498) | GI50 (SK-OV-3) | GI50 (NCI-H23) | GI50 (CCRF-CEM) | GI50 (HL-60) | GI50 (MDA-MB-435)
1 | CC1CC(C)(O)C2C3(C)CCCC2(COC3=O)C12CCC1(CCOC1=O)O2 (centres undefined) | > 250 µM (inactive) | > 250 µM (inactive) | > 250 µM (inactive) | > 250 µM (inactive) | > 250 µM (inactive) | > 250 µM (inactive) | > 250 µM (inactive) | > 250 µM (inactive) | > 250 µM (inactive) | > 250 µM (inactive) | > 250 µM (inactive) | > 250 µM (inactive) | > 250 µM (inactive) | > 163 µM (inactive) | > 250 µM (inactive) | > 250 µM (inactive) | > 250 µM (inactive) | > 250 µM (inactive) | –
2 | CC1=C(C(=O)NCc2ccccc2)C(c2ccco2)C(C(=O)NCc2ccccc2)=C(C)N1 | 17.3 µM (inactive) | > 100 µM (inactive) | 27.6 µM (inactive) | 33.8 µM (inactive) | 55.7 µM (inactive) | > 100 µM (inactive) | > 100 µM (inactive) | 71.4 µM (inactive) | – | > 100 µM (inactive) | > 100 µM (inactive) | > 100 µM (inactive) | 47 µM (inactive) | > 100 µM (inactive) | > 100 µM (inactive) | > 100 µM (inactive) | 45.8 µM (inactive) | 17.8 µM (inactive) | –
3 | O=C(C1C(c2ccccc2)N1C(c1ccccc1)c1ccccc1)C1C(c2ccccc2)N1C(c1ccccc1)c1ccccc1 (centres undefined) | – | 15.5 µM (inactive) | – | 26.9 µM (inactive) | 38.1 µM (inactive) | 45.6 µM (inactive) | 18.5 µM (inactive) | 5.08 µM (inactive) | 27.4 µM (inactive) | 25.1 µM (inactive) | 3.59 µM (inactive) | 48.2 µM (inactive) | 17.7 µM (inactive) | – | > 100 µM (inactive) | – | 3.61 µM (inactive) | 2.88 µM (inactive) | 36.4 µM (inactive)
4 | C/C=C(\C)C(=O)OC1C2C(C)=CC(=O)C(O)C2(C)C2C3(O)OCC24C1OC(=O)C(OC(C)=O)C4C(C)C3O (centres undefined) | 0.0375 µM (active) | 0.0375 µM (active) | 0.0377 µM (active) | 0.0375 µM (active) | 0.11 µM (active) | 0.0389 µM (active) | 0.0375 µM (active) | 0.0375 µM (active) | 1.05 µM (active) | 0.0375 µM (active) | 0.0375 µM (active) | 0.046 µM (active) | 0.0415 µM (active) | 0.0611 µM (active) | 0.144 µM (active) | 0.043 µM (active) | 0.0375 µM (active) | 0.0375 µM (active) | –
5 | CC1(C)N=C(N)N=C(N)N1c1ccc(CCc2ccccc2)cc1 | 1.02 µM (active) | 0.508 µM (active) | 8.85 µM (inactive) | 1.42 µM (inactive) | 3.53 µM (inactive) | 28.5 µM (inactive) | 2.96 µM (inactive) | 0.619 µM (active) | > 100 µM (inactive) | 0.435 µM (active) | 17.4 µM (inactive) | 0.622 µM (active) | 2.14 µM (inactive) | – | 48.4 µM (inactive) | 1.43 µM (inactive) | 1.91 µM (inactive) | 13.3 µM (inactive) | –
6 | OCC1OC(n2cnc3c2NC=NC[C@H]3O)C(O)C1O (some centres undefined) | > 450 µM (inactive) | 164 µM (inactive) | 339 µM (inactive) | > 450 µM (inactive) | > 450 µM (inactive) | 412 µM (inactive) | > 450 µM (inactive) | 260 µM (inactive) | > 436 µM (inactive) | > 450 µM (inactive) | 201 µM (inactive) | > 450 µM (inactive) | > 330 µM (inactive) | 208 µM (inactive) | 234 µM (inactive) | 445 µM (inactive) | 172 µM (inactive) | 86.7 µM (inactive) | –
7 | Cc1c2ccncc2c(C)c2c1[nH]c1ccccc12 [ELLIPTECINE] | 1.48 µM (inactive) | 0.15 µM (active) | 2.77 µM (inactive) | 0.473 µM (active) | 0.802 µM (active) | 1.47 µM (inactive) | 1.42 µM (inactive) | 0.272 µM (active) | 0.659 µM (active) | 0.771 µM (active) | 0.617 µM (active) | 0.933 µM (active) | 2.68 µM (inactive) | 0.794 µM (active) | 1.61 µM (inactive) | 0.656 µM (active) | 0.411 µM (active) | 0.883 µM (active) | –
8 | CC(C)c1oc(=O)cc2c1C(O)C1OC(=O)C3(C)C(O)C4OC4C2(C)C13 (centres undefined) [NAGILACTONE] | 1.38 µM (inactive) | 0.733 µM (active) | 2.16 µM (inactive) | 1.72 µM (inactive) | 2.12 µM (inactive) | 1.92 µM (inactive) | 1.83 µM (inactive) | 1.09 µM (active) | 12.9 µM (inactive) | 1.58 µM (inactive) | 1.1 µM (active) | 2.19 µM (inactive) | 1.86 µM (inactive) | 0.569 µM (active) | 5.2 µM (inactive) | 1.36 µM (inactive) | 0.817 µM (active) | 0.478 µM (active) | –
